Experimental data published in patent publication US20260042731A1, “(2,4-DICHLOROPHENOXY)ACETIC ACID ANALOGS” (CORTEVA AGRISCIENCE LLC, priority 2022, published 2026).
Like-named read-outs stand apart in the source and are kept apart here.

How the values were obtained:
[1] = test system: Amaranthus rudis (AMATA), tall water hemp; assay: Postemergence herbicide evaluation, growth of Amaranthus rudis (AMATA); type: in vivo; settings: Amaranthus tuberculatus, post-emergence, read-out: Ave. AMATA, percent reduction in plant size relative to the untreated control; for pest or weed control at 280 g/ha: 280 g ae/ha; for pest or weed control at 560 g/ha: 560 g ae/ha
[2] = test system: Ambrosia artemisiifolia (AMBEL), common ragweed; assay: Postemergence herbicide evaluation, growth of Ambrosia artemisiifolia (AMBEL); type: in vivo; settings: Ambrosia artemisiifolia, post-emergence, read-out: AVE. AMBEL, percent reduction in plant size relative to the untreated control; for pest or weed control at 280 g/ha: 280 g ae/ha; for pest or weed control at 560 g/ha: 560 g ae/ha
[3] = test system: Abutilon theophrasti (ABUTH), velvetleaf; assay: Postemergence herbicide evaluation, growth of Abutilon theophrasti (ABUTH); type: in vivo; settings: Abutilon theophrasti, post-emergence, read-out: AVE. ABUTH, percent reduction in plant size relative to the untreated control; for pest or weed control at 280 g/ha: 280 g ae/ha; for pest or weed control at 560 g/ha: 560 g ae/ha
[4] = test system: Chenopodium album (CHEAL), common lambsquarters; assay: Postemergence herbicide evaluation, growth of Chenopodium album (CHEAL); type: in vivo; settings: Chenopodium album, post-emergence, read-out: Ave. CHEAL, percent reduction in plant size relative to the untreated control; for pest or weed control at 280 g/ha: 280 g ae/ha; for pest or weed control at 560 g/ha: 560 g ae/ha
[5] = test system: glyphosate resistant Conyza canadensis (L.) (ERICA), horseweed; assay: Postemergence herbicide evaluation, growth of Conyza canadensis (ERICA); type: in vivo; settings: Erigeron canadensis, post-emergence, read-out: Ave. ERICA, percent reduction in plant size relative to the untreated control; for pest or weed control at 280 g/ha: 280 g ae/ha; for pest or weed control at 560 g/ha: 560 g ae/ha
[6] = Volatility of compounds measured by thermogravimetric analysis (TGA); type: physicochemical
[7] = test system: weeds ABUTH, AMATA, AMBEL, CHEAL, ERICA; assay: Postemergence herbicide evaluation, overall average % weed control (ABUTH, AMATA, AMBEL, CHEAL, ERICA); type: in vivo; settings: post-emergence, read-out: Overall Ave % Weed Control; for pest or weed control at 280 g/ha: 280 g ae/ha; for pest or weed control at 560 g/ha: 560 g ae/ha

Row | Structure (SMILES) | pest or weed control at 280 g/ha ([1]; 168 h, 7 DAA) [%] | pest or weed control at 560 g/ha ([1]; 168 h, 7 DAA) [%] | pest or weed control at 280 g/ha ([1]; 336 h, 14 DAA) [%] | pest or weed control at 560 g/ha ([1]; 336 h, 14 DAA) [%] | pest or weed control at 280 g/ha ([1]; 504 h, 21 DAA) [%] | pest or weed control at 560 g/ha ([1]; 504 h, 21 DAA) [%] | pest or weed control at 280 g/ha ([2]; 168 h, 7 DAA) [%] | pest or weed control at 560 g/ha ([2]; 168 h, 7 DAA) [%] | pest or weed control at 280 g/ha ([2]; 336 h, 14 DAA) [%] | pest or weed control at 560 g/ha ([2]; 336 h, 14 DAA) [%] | pest or weed control at 280 g/ha ([2]; 504 h, 21 DAA) [%] | pest or weed control at 560 g/ha ([2]; 504 h, 21 DAA) [%] | pest or weed control at 280 g/ha ([3]; 168 h, 7 DAA) [%] | pest or weed control at 560 g/ha ([3]; 168 h, 7 DAA) [%] | pest or weed control at 280 g/ha ([3]; 336 h, 14 DAA) [%] | pest or weed control at 560 g/ha ([3]; 336 h, 14 DAA) [%] | pest or weed control at 280 g/ha ([3]; 504 h, 21 DAA) [%] | pest or weed control at 560 g/ha ([3]; 504 h, 21 DAA) [%] | pest or weed control at 280 g/ha ([4]; 168 h, 7 DAA) [%] | pest or weed control at 560 g/ha ([4]; 168 h, 7 DAA) [%] | other results
1 | O=C(COc1ccc(Cl)cc1Cl)O/N=C/c1ccccc1 [Compound A2, (E)-benzaldehyde O-(2-(2,4-dichlorophenoxy)acetyl) oxime] | 68 | 75 | 70 | 88 | 73 | 87 | 65 | 73 | 92 | 96 | 91 | 100 | 85 | 85 | 94 | 96 | 98 | 96 | 70 | 73 | pest or weed control at 280 g/ha ([4]; 336 h, 14 DAA): 70%; pest or weed control at 560 g/ha ([4]; 336 h, 14 DAA): 85%; pest or weed control at 280 g/ha ([4]; 504 h, 21 DAA): 73%; pest or weed control at 560 g/ha ([4]; 504 h, 21 DAA): 87%; pest or weed control at 280 g/ha ([5]; 168 h, 7 DAA): 68%; pest or weed control at 560 g/ha ([5]; 168 h, 7 DAA): 73%; pest or weed control at 280 g/ha ([5]; 336 h, 14 DAA): 93%; pest or weed control at 560 g/ha ([5]; 336 h, 14 DAA): 85%; pest or weed control at 280 g/ha ([5]; 504 h, 21 DAA): 90%; pest or weed control at 560 g/ha ([5]; 504 h, 21 DAA): 98%; TGA Data (rate of weight loss, volatility) [6]: 0.8 µg/min; pest or weed control at 280 g/ha ([7]; 168 h, 7 DAA): 71%; pest or weed control at 560 g/ha ([7]; 168 h, 7 DAA): 76%; pest or weed control at 280 g/ha ([7]; 336 h, 14 DAA): 84%; pest or weed control at 560 g/ha ([7]; 336 h, 14 DAA): 90%; pest or weed control at 280 g/ha ([7]; 504 h, 21 DAA): 87%; pest or weed control at 560 g/ha ([7]; 504 h, 21 DAA): 93%
2 | Cc1nccc(NC(=O)COc2ccc(Cl)cc2Cl)c1C [Compound D26] | 72.5 | 85 | 88.5 | 87.5 | 75 | 87.5 | 75 | 90 | 70 | 85 | 100 | 100 | 42.5 | 55 | 52.5 | 65 | 62.5 | 70 | 75 | 77.5 | pest or weed control at 280 g/ha ([4]; 336 h, 14 DAA): 85%; pest or weed control at 560 g/ha ([4]; 336 h, 14 DAA): 77.5%; pest or weed control at 280 g/ha ([4]; 504 h, 21 DAA): 92.5%; pest or weed control at 560 g/ha ([4]; 504 h, 21 DAA): 95%; pest or weed control at 280 g/ha ([5]; 168 h, 7 DAA): 57.5%; pest or weed control at 560 g/ha ([5]; 168 h, 7 DAA): 60%; pest or weed control at 280 g/ha ([5]; 336 h, 14 DAA): 91.5%; pest or weed control at 560 g/ha ([5]; 336 h, 14 DAA): 100%; pest or weed control at 280 g/ha ([5]; 504 h, 21 DAA): 62.5%; pest or weed control at 560 g/ha ([5]; 504 h, 21 DAA): 72.5%; TGA Data (rate of weight loss, volatility) [6]: 0.09713 µg/min; pest or weed control at 280 g/ha ([7]; 168 h, 7 DAA): 64.5%; pest or weed control at 560 g/ha ([7]; 168 h, 7 DAA): 73.5%; pest or weed control at 280 g/ha ([7]; 336 h, 14 DAA): 77.5%; pest or weed control at 560 g/ha ([7]; 336 h, 14 DAA): 83%; pest or weed control at 280 g/ha ([7]; 504 h, 21 DAA): 78.5%; pest or weed control at 560 g/ha ([7]; 504 h, 21 DAA): 85%
